This note sets out measurements from patent US20210300909A1, “IMMUNOMODULATORS, COMPOSITIONS AND METHODS THEREOF” (BETTA PHARMACEUTICALS CO., LTD, priority 2018, published 2021).

Structures are written as SMILES. Bounds are passed on as bounds.

In the first assay the target is T1, PD-1/PD-L1 protein/protein interaction (Homo sapiens, UniProt Q9NZQ7).
T1 construct: Recombinant human PD-L1 protein (19-238) with a His-tag at the C-terminus; purchased AcroBiosystems PD1-H5229 (PD-L1); PD1-H5257 (PD-1)
T1 sequence (Q9NZQ7 19-238): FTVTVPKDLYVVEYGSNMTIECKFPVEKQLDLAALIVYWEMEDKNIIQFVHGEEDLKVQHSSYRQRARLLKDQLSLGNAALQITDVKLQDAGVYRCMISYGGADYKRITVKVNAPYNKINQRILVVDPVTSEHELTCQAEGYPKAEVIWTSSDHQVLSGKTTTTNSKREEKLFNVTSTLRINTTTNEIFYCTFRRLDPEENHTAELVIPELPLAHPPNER
Description: PD-1/PD-L1 homogenous time-resolved fluorescence (HTRF) binding assay.
Conditions: not given
As to the method: Resolved Fluorescence (HTRF) Binding Assay
The assays were conducted in a standard black 384-well polystyrene plate with a final volume of 20 μL. Inhibitors were first serially diluted in DMSO and then added to the plate wells before the addition of other reaction components. The final concentration of DMSO in the assay was 1%. The assays were carried out at 25° C. in the PBS buffer (pH 7.4) with 0.05% Tween-20 and 0.1% BSA. […] Plates were centrifuged and proteins were preincubated with inhibitors for 40 min. The incubation was followed by the addition of 10 μL of HTRF detection buffer supplemented with Europium cryptate-labeled anti-human IgG (PerkinElmer-AD0212) specific for Fc and anti-His antibody conjugated to SureLight®-Allophycocyanin (APC, PerkinElmer-AD0059H). After centrifugation, the plate was incubated at 25° C. for 60 min. […] Final concentrations in the assay were […], 10 nM PD-L1, nM europium anti-human IgG and 20 nM anti-His-Allophycocyanin. IC50 determination was performed by fitting the curve of percent control activity versus the log of the inhibitor concentration using the GraphPad Prism 5.0 software.
What is called IC50 is the concentration at which inhibition is half-maximal. In the case of `COc1cc2oc(-c3cccc(-c4cccc(CC5OC5CN5CCOCC5)c4C)c3C)nc2cc1CN1CCCCC1C(=O)O` (centres unmarked) [Compound 27, 1-((2-(2,2′-dimethyl-3′-((3-(morpholinomethyl)oxiran-2-yl)methyl)-[1,1′-biphenyl]-3-yl)-6-methoxybenzo[d]oxazol-5-yl)methyl)piperidine-2-carboxylic acid], the half-maximal inhibitory concentration (IC50) lay within 25 to 150 nM.

For `COc1cc2nc(-c3cccc(-c4cccc(OCCCN5CCOCC5)c4F)c3C)n(C)c2cc1N1CCCCC1C(=O)O` (centres unmarked) [Compound 12, 1-(2-(2′-fluoro-2-methyl-3′-(3-morpholinopropoxy)-[1,1′-biphenyl]-3-yl)-5-methoxy-1-methyl-1H-benzo[d]imidazol-6-yl)piperidine-2-carboxylic acid], the 50% inhibitory concentration (IC50) is less than 25 nM.

Molecule `COc1cc2oc(-c3cccc(-c4cccc(NC(=O)NCCNCCO)c4)c3C)nc2cc1CN1CCCCC1C(=O)O` (centres unmarked) [Compound 5, 1-((2-(3′-(3-(2-((2-hydroxyethyl)amino)ethyl)ureido)-2-methyl-[1,1′-biphenyl]-3-yl)-6-methoxybenzo[d]oxazol-5-yl)methyl)piperidine-2-carboxylic acid] registered an IC50 of 25 to 150 nM.

The molecule `COc1cc2oc(-c3cccc(-c4cccc(CC5CC5CN5CCOCC5)c4C)c3C)nc2cc1CN1CCCCC1C(=O)O` (centres unmarked) [Compound 28, 1-((2-(2,2′-dimethyl-3′-((2-(morpholinomethyl)cyclopropyl)methyl)-[1,1′-biphenyl]-3-yl)-6-methoxybenzo[d]oxazol-5-yl)methyl)piperidine-2-carboxylic acid] returned a half-inhibitory concentration (IC50) of 25 to 150 nM.

In the case of `COc1cc2oc(-c3cccc(-c4cccc5c4CCN5C(=O)CCN4CCOCC4)c3C)nc2cc1CN1CCOCC1C(=O)O` (centres unmarked) [Compound 38, 4-((6-methoxy-2-(2-methyl-3-(1-(3-morpholinopropanoyl)indolin-4-yl)phenyl)benzo[d]oxazol-5-yl)methyl)morpholine-3-carboxylic acid], the IC50 was less than 25 nM.

The molecule `COc1cc2nc(-c3cccc(-c4cccc(OCCCN5CCOCC5)c4)c3C)sc2cc1CN1CCCCC1C(=O)O` (centres unmarked) [Compound 35, 1-((5-methoxy-2-(2-methyl-3′-(3-morpholinopropoxy)-[1,1′-biphenyl]-3-yl)benzo[d]thiazol-6-yl)methyl)piperidine-2-carboxylic acid] showed a half-maximal inhibitory concentration (IC50) of less than 25 nM.

Molecule `COc1cc2c(cc1CN1CCCCC1C(=O)O)nc(-c1cccc(-c3cccc(OCCCN4CCOCC4)c3F)c1C)n2C` (centres unmarked) [Compound 13, 1-((2-(2′-fluoro-2-methyl-3′-(3-morpholinopropoxy)-[1,1′-biphenyl]-3-yl)-6-methoxy-1-methyl-1H-benzo[d]imidazol-5-yl)methyl)piperidine-2-carboxylic acid] yielded an IC50 of less than 25 nM.

As to `COCCN(C)CCCOc1cccc(-c2cccc(-c3nc4cc(CN5CCCCC5C(=O)O)c(OC)cc4o3)c2C)c1C` (centres unmarked) [Compound 31, 1-((6-methoxy-2-(3′-(3-((2-methoxyethyl)(methyl)amino)propoxy)-2,2′-dimethyl-[1,1′-biphenyl]-3-yl)benzo[d]oxazol-5-yl)methyl)piperidine-2-carboxylic acid], the IC50 is less than 25 nM.

Turning to `COc1cc2oc(-c3cccc(-c4cccc(OCCCN5CCOCC5)c4F)c3C)nc2cc1CN1CCCCC1C(=O)O` (centres unmarked) [Compound 9, 1-((2-(2′-fluoro-2-methyl-3′-(3-morpholinopropoxy)-[1,1′-biphenyl]-3-yl)-6-methoxybenzo[d]oxazol-5-yl)methyl)piperidine-2-carboxylic acid], the concentration for half-maximal inhibition (IC50) was less than 25 nM.

For the molecule `COc1cc2nc(-c3cccc(-c4cccc(OCCCN5CCOCC5)c4)c3C)n(C)c2cc1CN1CCCCC1C(=O)O` (centres unmarked) [Compound 33, 1-((5-methoxy-1-methyl-2-(2-methyl-3′-(3-morpholinopropoxy)-[1,1′-biphenyl]-3-yl)-1H-benzo[d]imidazol-6-yl)methyl)piperidine-2-carboxylic acid], the IC50 is less than 25 nM.

Molecule `COc1cc2oc(-c3cccc(-c4cccc(OCCCN(C)C)c4C)c3C)nc2cc1CN1CCCCC1C(=O)O` (centres unmarked) [Compound 30, 1-((2-(3′-(3-(dimethylamino)propoxy)-2,2′-dimethyl-[1,1′-biphenyl]-3-yl)-6-methoxybenzo[d]oxazol-5-yl)methyl)piperidine-2-carboxylic acid] had an IC50 of less than 25 nM.

Molecule `COc1cc2oc(-c3cccc(-c4cccc(OCCCN5CCOCC5)c4C)c3C)nc2cc1CN1CCCCC1C(=O)O` (centres unmarked) [Compound 3, 1-((2-(2,2′-dimethyl-3′-(3-morpholinopropoxy)-[1,1′-biphenyl]-3-yl)-6-methoxybenzo[d]oxazol-5-yl)methyl)piperidine-2-carboxylic acid] had an IC50 of 1 nM.

For `COc1cc2oc(-c3cccc(-c4cccc(NC(=O)CCN5CCOCC5)c4C)c3C)nc2cc1CN1CCCCC1C(=O)O` (centres unmarked) [Compound 8, 1-((2-(2,2′-dimethyl-3′-(3-morpholinopropanamido)-[1,1′-biphenyl]-3-yl)-6-methoxybenzo[d]oxazol-5-yl)methyl)piperidine-2-carboxylic acid], the IC50 is less than 25 nM.

`COc1cc2oc(-c3cccc(-c4cccc(/C=C/CCN5CCOCC5)c4C)c3C)nc2cc1CN1CCCCC1C(=O)O` (centres unmarked) [Compound 7, (E)-1-((2-(2,2′-dimethyl-3′-(4-morpholinobut-1-en-1-yl)-[1,1′-biphenyl]-3-yl)-6-methoxybenzo[d]oxazol-5-yl)methyl)piperidine-2-carboxylic acid] came in with an IC50 of less than 25 nM.

As to `COc1cc2nc(-c3cccc(-c4cccc(OCCCN5CCOCC5)c4)c3C)oc2cc1CN1CCCCC1C(=O)O` (centres unmarked) [Compound 34, 1-((5-methoxy-2-(2-methyl-3′-(3-morpholinopropoxy)-[1,1′-biphenyl]-3-yl)benzo[d]oxazol-6-yl)methyl)piperidine-2-carboxylic acid], the IC50 was less than 25 nM.

Molecule `Cc1c(-c2cccc(OCCCN3CCOCC3)c2)cccc1-c1nc2cc(CN3CCCCC3C(=O)O)c(OCc3ccccn3)cc2o1` (centres unmarked) [Compound 22, 1-((2-(2-methyl-3′-(3-morpholinopropoxy)-[1,1′-biphenyl]-3-yl)-6-(pyridin-2-ylmethoxy)benzo[d]oxazol-5-yl)methyl)piperidine-2-carboxylic acid] came in with an IC50 of 25 to 150 nM.

Still in this assay, the particulars now being: HTRF, recombinant human PD-1 (Fc tag) / PD-L1 (His-tag), 25° C., PBS pH 7.4; class symbols; read-out: IC50.
As to `CCOc1cc2oc(-c3cccc(-c4cccc5c4CCN5C(=O)CCN4CCOCC4)c3C)nc2cc1CN1CCCCC1C(=O)O` (centres unmarked) [Compound 39, 1-((6-ethoxy-2-(2-methyl-3-(1-(3-morpholinopropanoyl)indolin-4-yl)phenyl)benzo[d]oxazol-5-yl)methyl)piperidine-2-carboxylic acid], the concentration for half-maximal inhibition (IC50) is less than 25 nM.

For `Cc1c(OCCCN2CCOCC2)cccc1-c1cccc(-c2nc3cc(CNCC(=O)O)c(N(C)C)cc3s2)c1C` [Compound 36, ((2-(2,2′-dimethyl-3′-(3-morpholinopropoxy)-[1,1′-biphenyl]-3-yl)-6-(dimethylamino)benzo[d]thiazol-5-yl)methyl)glycine], the IC50 fell in the range of 25 to 150 nM.

Turning to `COc1cc2oc(-c3cccc(-c4ccc(Cl)c(OCCCN5CCOCC5)c4)c3C)nc2cc1CN1CCCCC1C(=O)O` (centres unmarked) [Compound 11, 1-((2-(4′-chloro-2-methyl-3′-(3-morpholinopropoxy)-[1,1′-biphenyl]-3-yl)-6-methoxybenzo[d]oxazol-5-yl)methyl)piperidine-2-carboxylic acid], the concentration for half-maximal inhibition (IC50) was in the range of 25 to 150 nM.

Still in this assay, the particulars now being: HTRF, recombinant human PD-1 (Fc tag) / PD-L1 (His-tag), 25° C., PBS pH 7.4; numeric values; read-out: IC50.
As for `COc1cc2oc(-c3cccc(-c4ccccc4)c3C)nc2cc1CN1CCCCC1C(=O)O` (centres unmarked) [Compound 23, 1-((6-methoxy-2-(2-methyl-[1,1′-biphenyl]-3-yl)benzo[d]oxazol-5-yl)methyl)piperidine-2-carboxylic acid], the concentration for half-maximal inhibition (IC50) was determined as 0.61 nM.
